As usually defined, the IC50 is the concentration at which inhibition is half-maximal. A low value points to inhibition by little substance.

The values that follow come from ChEMBL document CHEMBL1159356, “Cytotoxic styrylpyrones from Goniothalamus amuyon” (J Nat Prod, 2003).

Values after ≈ are worked out from the molar mass of the structure shown. Numbered stars: 1 amine (or outer) side, 2 acyl side, 3 side chain; on linkers, the order of the positions; unused ones are H or OH. Bridge positions count the residues as written; N and C are the ends. Square brackets hold non-standard residues; d marks the D form. Peptide text beside a SMILES is read from it. I, II: the chains in the order shown. Actinocin(1to9) = Cc1c2oc3c(C)ccc(C(=O)[*:2])c3nc-2c(C(=O)[*:1])c(N)c1=O; NMeV = CN[C@H](C(=O)O)C(C)C; Sar = CNCC(=O)O

Assay [1] concerns NUGC. The experiment in a line: Cytotoxicity against human NUGC cells. It is filed as functional, cell-based.
Assay [2] in a line: Cytotoxicity against human HONE1 cells. In kind it is functional, cell-based.

As to `CC(=O)O[C@H](c1ccccc1)[C@H](O)[C@H]1CC=CC(=O)O1`, the results for the half-inhibitory concentration (IC50) in assay [1] and in assay [2] were 5.02 µg/mL (≈ 18.2 µM) and 6.09 µg/mL (≈ 22 µM), respectively.
For `CC(=O)O[C@H]([C@H](O)c1ccccc1)[C@H]1CC=CC(=O)O1`, in that order: 4.12 µg/mL (≈ 14.9 µM) and 5.69 µg/mL (≈ 20.6 µM).
In the case of `Cc1c2oc3c(C)ccc(C(=O)N[C@@H]4C(=O)N[C@H](C(C)C)C(=O)N5CCC[C@H]5C(=O)N(C)CC(=O)N(C)[C@@H](C(C)C)C(=O)O[C@@H]4C)c3nc-2c(C(=O)N[C@@H]2C(=O)N[C@H](C(C)C)C(=O)N3CCC[C@H]3C(=O)N(C)CC(=O)N(C)[C@@H](C(C)C)C(=O)O[C@@H]2C)c(N)c1=O` [DACTINOMYCIN] (I: T[dV]P[Sar][NMeV] / II: T[dV]P[Sar][NMeV]; ester I:1-I:C, II:1-II:C; linker I:N-II:N via Actinocin(1to9)), the IC50 in assay [1] was determined as 6.61 µg/mL (≈ 5.27 µM); in assay [2], 4.53 µg/mL (≈ 3.61 µM).
For `CO[C@H](c1ccccc1)[C@H](O)[C@H]1CC=CC(=O)O1` [6R,7R,8R-8-METHOXYGONIODIOL], in that order: 168 µg/mL (≈ 675 µM) and 240 µg/mL (≈ 965 µM).
For `O=C1C=CC[C@H]([C@@H](O)[C@H](Cl)c2ccccc2)O1` [6R,7R,8R-8-CHLOROGONIODIOL], in that order: 31 µg/mL (≈ 123 µM) and 4.87 µg/mL (≈ 19.3 µM).
For `O=C1C=CC[C@H]([C@@H]2O[C@H]2c2ccccc2)O1` [GONIOTHALAMIN EPOXIDE], in that order: 32.1 µg/mL (≈ 148 µM) and 36.3 µg/mL (≈ 168 µM).
